Source: ChEMBL document CHEMBL3797178, “Synthesis, antimycobacterial and antibacterial activity of 1-(6-amino-3,5-difluoropyridin-2-yl)fluoroquinolone derivatives containing an oxime functional moiety” (2016)
Values after ≈ are worked out from the molar mass of the structure shown.

How the values were obtained:
Assay type in all cases: functional
[1] = test system: Staphylococcus aureus; test: Antibacterial activity against methicillin-sensitive Staphylococcus aureus 14-3 after 18 to 24 hrs by CLSI M100-S11 method
[2] = test system: Staphylococcus aureus; test: Antibacterial activity against methicillin-resistant Staphylococcus aureus 14-5 after 18 to 24 hrs by CLSI M100-S11 method
[3] = test system: Staphylococcus aureus; test: Antibacterial activity against methicillin-sensitive Staphylococcus aureus 14-4 after 18 to 24 hrs by CLSI M100-S11 method
[4] = test system: Pseudomonas aeruginosa; test: Antibacterial activity against Pseudomonas aeruginosa 14-16 after 18 to 24 hrs by CLSI M100-S11 method
[5] = test system: Pseudomonas aeruginosa; test: Antibacterial activity against Pseudomonas aeruginosa 14-19 after 18 to 24 hrs by CLSI M100-S11 method
[6] = test system: Enterococcus faecalis; test: Antibacterial activity against Enterococcus faecalis 14-2 after 18 to 24 hrs by CLSI M100-S11 method
[7] = test system: Klebsiella pneumoniae; test: Antibacterial activity against Klebsiella pneumoniae 14-2 after 18 to 24 hrs by CLSI M100-S11 method
[8] = test system: Escherichia coli; test: Antibacterial activity against Escherichia coli ATCC 25922 after 18 to 24 hrs by CLSI M100-S11 method
[9] = test system: Streptococcus pneumoniae; test: Antibacterial activity against Streptococcus pneumoniae ATCC 19615 after 18 to 24 hrs by CLSI M100-S11 method
[10] = test system: Staphylococcus aureus; test: Antibacterial activity against methicillin-sensitive Staphylococcus aureus 14-2 after 18 to 24 hrs by CLSI M100-S11 method
[11] = test system: Staphylococcus epidermidis; test: Antibacterial activity against methicillin-sensitive Staphylococcus epidermidis 14-4 after 18 to 24 hrs by CLSI M100-S11 method
[12] = test system: Staphylococcus aureus; test: Antibacterial activity against methicillin-resistant Staphylococcus aureus 14-4 after 18 to 24 hrs by CLSI M100-S11 method
[13] = test system: Klebsiella pneumoniae; test: Antibacterial activity against extended-spectrum beta-lactamase-producing Klebsiella pneumoniae 14-17 after 18 to 24 hrs by CLSI M100-S11 method
[14] = test system: Staphylococcus epidermidis; test: Antibacterial activity against methicillin-resistant Staphylococcus epidermidis 14-37 after 18 to 24 hrs by CLSI M100-S11 method
[15] = test system: Pseudomonas aeruginosa; test: Antibacterial activity against Pseudomonas aeruginosa 14-14 after 18 to 24 hrs by CLSI M100-S11 method
[16] = test system: Staphylococcus epidermidis; test: Antibacterial activity against methicillin-resistant Staphylococcus epidermidis 14-39 after 18 to 24 hrs by CLSI M100-S11 method
[17] = test system: Klebsiella pneumoniae; test: Antibacterial activity against Klebsiella pneumoniae 14-4 after 18 to 24 hrs by CLSI M100-S11 method
[18] = test system: Pseudomonas aeruginosa; test: Antibacterial activity against Pseudomonas aeruginosa 14-9 after 18 to 24 hrs by CLSI M100-S11 method
[19] = test system: Klebsiella pneumoniae; test: Antibacterial activity against extended-spectrum beta-lactamase-producing Klebsiella pneumoniae 14-19 after 18 to 24 hrs by CLSI M100-S11 method
[20] = test system: Escherichia coli; test: Antibacterial activity against Escherichia coli 14-2 after 18 to 24 hrs by CLSI M100-S11 method
[21] = test system: Escherichia coli; test: Antibacterial activity against extended-spectrum beta-lactamase-producing Escherichia coli 14-1 after 18 to 24 hrs by CLSI M100-S11 method
[22] = test system: Staphylococcus aureus; test: Antibacterial activity against Staphylococcus aureus CMCC 26003 after 18 to 24 hrs by CLSI M100-S11 method
[23] = test system: Enterococcus faecalis; test: Antibacterial activity against Enterococcus faecalis 14-3 after 18 to 24 hrs by CLSI M100-S11 method
[24] = test system: Escherichia coli; test: Antibacterial activity against extended-spectrum beta-lactamase-producing Escherichia coli 14-2 after 18 to 24 hrs by CLSI M100-S11 method
[25] = test system: Pseudomonas aeruginosa; test: Antibacterial activity against Pseudomonas aeruginosa 14-15 after 18 to 24 hrs by CLSI M100-S11 method
[26] = test system: Escherichia coli; test: Antibacterial activity against Escherichia coli 14-1 after 18 to 24 hrs by CLSI M100-S11 method
[27] = test system: Enterococcus faecium; test: Antibacterial activity against Enterococcus faecium 14-2 after 18 to 24 hrs by CLSI M100-S11 method
[28] = test system: Pseudomonas aeruginosa; test: Antibacterial activity against Pseudomonas aeruginosa ATCC 27853 after 18 to 24 hrs by CLSI M100-S11 method
[29] = test system: Klebsiella pneumoniae; test: Antibacterial activity against Klebsiella pneumoniae 14-1 after 18 to 24 hrs by CLSI M100-S11 method
[30] = test system: Enterococcus faecium; test: Antibacterial activity against Enterococcus faecium 14-1 after 18 to 24 hrs by CLSI M100-S11 method
[31] = test system: Staphylococcus epidermidis; test: Antibacterial activity against methicillin-sensitive Staphylococcus epidermidis 14-2 after 18 to 24 hrs by CLSI M100-S11 method
[32] = test system: Enterococcus faecalis; test: Antibacterial activity against Enterococcus faecalis 14-1 after 18 to 24 hrs by CLSI M100-S11 method
[33] = test system: Klebsiella pneumoniae; test: Antibacterial activity against extended-spectrum beta-lactamase-producing Klebsiella pneumoniae 14-18 after 18 to 24 hrs by CLSI M100-S11 method
[34] = test system: Staphylococcus epidermidis; test: Antibacterial activity against methicillin-sensitive Staphylococcus epidermidis 14-6 after 18 to 24 hrs by CLSI M100-S11 method
[35] = test system: Staphylococcus epidermidis; test: Antibacterial activity against methicillin-resistant Staphylococcus epidermidis 14-22 after 18 to 24 hrs by CLSI M100-S11 method
[36] = test system: Klebsiella pneumoniae; test: Antibacterial activity against Klebsiella pneumoniae 14-3 after 18 to 24 hrs by CLSI M100-S11 method
[37] = test system: Mycobacterium tuberculosis; test: Antimycobacterial activity against Mycobacterium tuberculosis H37Rv ATCC 27294 after 3 days by microplate Alamar Blue assay; conditions: H37Rv ATCC 27294, 72 h

Row | Compound | MIC [1] | MIC [2] | MIC [3] | MIC [4] | MIC [5] | MIC [6] | MIC [7] | MIC [8] | MIC [9] | MIC [10] | MIC [11] | MIC [12] | MIC [13] | MIC [14] | MIC [15] | MIC [16] | MIC [17] | MIC [18] | MIC [19] | MIC [20] | also measured
1 | CCO/N=C1\CN(c2nc3c(cc2F)c(=O)c(C(=O)O)cn3-c2nc(N)c(F)cc2F)[C@H]1CN | 8 µg/mL (≈ 16.8 µM) | > 128 µg/mL | 4 µg/mL (≈ 8.38 µM) | 64 µg/mL (≈ 134 µM) | 64 µg/mL (≈ 134 µM) | > 128 µg/mL | > 128 µg/mL | 2 µg/mL (≈ 4.19 µM) | 32 µg/mL (≈ 67 µM) | 4 µg/mL (≈ 8.38 µM) | 64 µg/mL (≈ 134 µM) | > 128 µg/mL | > 128 µg/mL | > 128 µg/mL | 64 µg/mL (≈ 134 µM) | > 129 µg/mL | 128 µg/mL (≈ 268 µM) | 32 µg/mL (≈ 67 µM) | > 128 µg/mL | > 128 µg/mL | MIC [21]: 64 µg/mL (≈ 134 µM); MIC [22]: 2 µg/mL (≈ 4.19 µM); MIC [23]: > 128 µg/mL; MIC [24]: > 128 µg/mL; MIC [25]: 64 µg/mL (≈ 134 µM); MIC [26]: > 128 µg/mL; MIC [27]: 32 µg/mL (≈ 67 µM); MIC [28]: 16 µg/mL (≈ 33.5 µM); MIC [29]: > 128 µg/mL; MIC [30]: > 128 µg/mL; MIC [31]: > 128 µg/mL; MIC [32]: > 128 µg/mL; MIC [33]: 64 µg/mL (≈ 134 µM); MIC [34]: 128 µg/mL (≈ 268 µM); MIC [35]: > 128 µg/mL; MIC [36]: > 128 µg/mL; MIC [37]: > 32 µg/mL
2 | CO/N=C1\CN(c2nc3c(cc2F)c(=O)c(C(=O)O)cn3-c2nc(N)c(F)cc2F)[C@@H]1CN | 32 µg/mL (≈ 69.1 µM) | > 128 µg/mL | 16 µg/mL (≈ 34.5 µM) | 64 µg/mL (≈ 138 µM) | 64 µg/mL (≈ 138 µM) | > 128 µg/mL | > 128 µg/mL | 16 µg/mL (≈ 34.5 µM) | 128 µg/mL (≈ 276 µM) | 32 µg/mL (≈ 69.1 µM) | > 128 µg/mL | > 128 µg/mL | > 128 µg/mL | > 128 µg/mL | 64 µg/mL (≈ 138 µM) | > 131 µg/mL | > 128 µg/mL | 64 µg/mL (≈ 138 µM) | > 128 µg/mL | > 128 µg/mL | MIC [21]: > 128 µg/mL; MIC [22]: 16 µg/mL (≈ 34.5 µM); MIC [23]: > 128 µg/mL; MIC [24]: > 128 µg/mL; MIC [25]: 64 µg/mL (≈ 138 µM); MIC [26]: > 128 µg/mL; MIC [27]: 64 µg/mL (≈ 138 µM); MIC [28]: 64 µg/mL (≈ 138 µM); MIC [29]: > 128 µg/mL; MIC [30]: > 128 µg/mL; MIC [31]: > 128 µg/mL; MIC [32]: > 128 µg/mL; MIC [33]: 64 µg/mL (≈ 138 µM); MIC [34]: > 128 µg/mL; MIC [35]: > 128 µg/mL; MIC [36]: > 128 µg/mL; MIC [37]: > 32 µg/mL
3 | CC1(CN)CN(c2nc3c(cc2F)c(=O)c(C(=O)O)cn3-c2nc(N)c(F)cc2F)C/C1=N\OCc1ccccc1 (stereo not drawn) | 8 µg/mL (≈ 14.1 µM) | 64 µg/mL (≈ 113 µM) | 4 µg/mL (≈ 7.05 µM) | 128 µg/mL (≈ 226 µM) | 128 µg/mL (≈ 226 µM) | > 128 µg/mL | > 128 µg/mL | 16 µg/mL (≈ 28.2 µM) | 32 µg/mL (≈ 56.4 µM) | 0.25 µg/mL (≈ 0.441 µM) | > 128 µg/mL | 64 µg/mL (≈ 113 µM) | > 128 µg/mL | > 128 µg/mL | 128 µg/mL (≈ 226 µM) | > 128 µg/mL | > 128 µg/mL | 128 µg/mL (≈ 226 µM) | > 128 µg/mL | 128 µg/mL (≈ 226 µM) | MIC [21]: 64 µg/mL (≈ 113 µM); MIC [22]: 0.25 µg/mL (≈ 0.441 µM); MIC [23]: > 128 µg/mL; MIC [24]: > 128 µg/mL; MIC [25]: 128 µg/mL (≈ 226 µM); MIC [26]: > 128 µg/mL; MIC [27]: 8 µg/mL (≈ 14.1 µM); MIC [28]: 128 µg/mL (≈ 226 µM); MIC [29]: > 128 µg/mL; MIC [30]: > 128 µg/mL; MIC [31]: > 128 µg/mL; MIC [32]: > 128 µg/mL; MIC [33]: > 128 µg/mL; MIC [34]: > 128 µg/mL; MIC [35]: 64 µg/mL (≈ 113 µM); MIC [36]: > 128 µg/mL; MIC [37]: 15.6 µg/mL (≈ 27.5 µM)
4 | NCC1CN(c2nc3c(cc2F)c(=O)c(C(=O)O)cn3-c2nc(N)c(F)cc2F)C/C1=N\OCc1ccccc1 (stereo not drawn) | 0.25 µg/mL (≈ 0.452 µM) | 128 µg/mL (≈ 231 µM) | 0.25 µg/mL (≈ 0.452 µM) | 32 µg/mL (≈ 57.8 µM) | 32 µg/mL (≈ 57.8 µM) | 16 µg/mL (≈ 28.9 µM) | 128 µg/mL (≈ 231 µM) | 0.5 µg/mL (≈ 0.903 µM) | 16 µg/mL (≈ 28.9 µM) | 0.015 µg/mL (≈ 0.0271 µM) | 32 µg/mL (≈ 57.8 µM) | 64 µg/mL (≈ 116 µM) | 64 µg/mL (≈ 116 µM) | 32 µg/mL (≈ 57.8 µM) | 32 µg/mL (≈ 57.8 µM) | 32 µg/mL (≈ 57.8 µM) | 128 µg/mL (≈ 231 µM) | 32 µg/mL (≈ 57.8 µM) | 128 µg/mL (≈ 231 µM) | 128 µg/mL (≈ 231 µM) | MIC [21]: 8 µg/mL (≈ 14.5 µM); MIC [22]: < 0.008 µg/mL; MIC [23]: 16 µg/mL (≈ 28.9 µM); MIC [24]: 128 µg/mL (≈ 231 µM); MIC [25]: 32 µg/mL (≈ 57.8 µM); MIC [26]: 128 µg/mL (≈ 231 µM); MIC [27]: 16 µg/mL (≈ 28.9 µM); MIC [28]: 8 µg/mL (≈ 14.5 µM); MIC [29]: 128 µg/mL (≈ 231 µM); MIC [30]: 128 µg/mL (≈ 231 µM); MIC [31]: 64 µg/mL (≈ 116 µM); MIC [32]: 8 µg/mL (≈ 14.5 µM); MIC [33]: 32 µg/mL (≈ 57.8 µM); MIC [34]: 32 µg/mL (≈ 57.8 µM); MIC [35]: 16 µg/mL (≈ 28.9 µM); MIC [36]: 128 µg/mL (≈ 231 µM); MIC [37]: 3.81 µg/mL (≈ 6.88 µM)
